Measurements reported in ChEMBL document CHEMBL4346735, “Discovery and pharmacological evaluation of indole derivatives as potent and selective RORγt inverse agonist for multiple autoimmune conditions” (Bioorg Med Chem Lett, 2019).
Converted amounts (≈) assume the structure as drawn.

Experiments:
[1] = target: T1, Nuclear receptor ROR-gamma (Homo sapiens, UniProt P51449); test: Transactivation of recombinant GAL4-DBD fused RORgammat LBD (unknown origin) expressed in HEK293T cells incubated for 18 to 24 hrs by dual-Glo luciferase assay; format: cell-based
T1 sequence (P51449 whole entry): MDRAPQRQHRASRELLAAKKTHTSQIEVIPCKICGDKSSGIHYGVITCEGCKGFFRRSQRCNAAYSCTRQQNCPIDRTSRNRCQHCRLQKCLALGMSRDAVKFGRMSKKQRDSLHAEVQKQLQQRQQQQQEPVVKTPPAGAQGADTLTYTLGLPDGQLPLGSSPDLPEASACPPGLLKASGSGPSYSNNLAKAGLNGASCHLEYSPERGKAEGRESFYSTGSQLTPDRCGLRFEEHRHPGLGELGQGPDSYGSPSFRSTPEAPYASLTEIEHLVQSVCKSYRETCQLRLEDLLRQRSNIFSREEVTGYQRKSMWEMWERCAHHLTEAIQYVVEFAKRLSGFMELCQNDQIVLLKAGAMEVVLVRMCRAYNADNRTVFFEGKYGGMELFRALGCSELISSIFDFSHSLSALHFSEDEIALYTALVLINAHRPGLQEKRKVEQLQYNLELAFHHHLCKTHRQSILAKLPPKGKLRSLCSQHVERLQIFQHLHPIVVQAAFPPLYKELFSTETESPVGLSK

Cytochrome P450 2C9 = Cytochrome P450 2C9 (Homo sapiens, UniProt P11712); test: Inhibition of CYP2C9 in human liver microsomes using diclofenac as substrate preincubated for 5 mins followed by NADPH addition measured after 10 mins by LC-MS/MS analysis
Cytochrome P450 2C9, sequence (P11712 whole entry): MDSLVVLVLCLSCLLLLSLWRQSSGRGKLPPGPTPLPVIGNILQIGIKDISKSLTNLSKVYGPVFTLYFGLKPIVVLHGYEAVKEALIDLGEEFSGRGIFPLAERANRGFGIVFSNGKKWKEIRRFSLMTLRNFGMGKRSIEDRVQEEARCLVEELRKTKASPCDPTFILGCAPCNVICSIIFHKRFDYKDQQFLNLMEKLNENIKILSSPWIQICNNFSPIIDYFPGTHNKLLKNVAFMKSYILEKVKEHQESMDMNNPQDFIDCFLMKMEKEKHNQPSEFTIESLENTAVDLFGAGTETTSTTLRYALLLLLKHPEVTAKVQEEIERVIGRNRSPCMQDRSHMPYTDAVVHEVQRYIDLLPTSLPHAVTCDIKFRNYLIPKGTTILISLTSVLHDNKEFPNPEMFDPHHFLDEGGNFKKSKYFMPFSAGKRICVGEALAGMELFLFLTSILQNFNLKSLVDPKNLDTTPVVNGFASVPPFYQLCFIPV

Cytochrome P450 2C19 = Cytochrome P450 2C19 (Homo sapiens, UniProt P33261); test: Inhibition of CYP2C19 in human liver microsomes using (S)-mephenytoin as substrate preincubated for 5 mins followed by NADPH addition measured after 40 mins by LC-MS/MS analysis
Cytochrome P450 2C19, sequence (P33261 whole entry): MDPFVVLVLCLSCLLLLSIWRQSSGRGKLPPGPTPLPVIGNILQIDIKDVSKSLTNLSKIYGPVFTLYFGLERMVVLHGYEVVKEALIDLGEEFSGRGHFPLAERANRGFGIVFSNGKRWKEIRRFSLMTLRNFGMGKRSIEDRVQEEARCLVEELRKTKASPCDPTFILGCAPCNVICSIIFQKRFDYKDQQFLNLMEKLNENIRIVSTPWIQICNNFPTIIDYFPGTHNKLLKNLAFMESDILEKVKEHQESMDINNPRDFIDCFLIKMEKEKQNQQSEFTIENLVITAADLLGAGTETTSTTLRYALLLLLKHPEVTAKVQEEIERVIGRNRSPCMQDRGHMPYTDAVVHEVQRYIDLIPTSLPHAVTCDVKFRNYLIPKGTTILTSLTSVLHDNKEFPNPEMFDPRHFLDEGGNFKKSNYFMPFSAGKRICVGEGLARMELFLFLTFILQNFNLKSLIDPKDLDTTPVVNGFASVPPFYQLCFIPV

Cytochrome P450 2D6 = Cytochrome P450 2D6 (Homo sapiens, UniProt P10635); test: Inhibition of CYP2D6 in human liver microsomes using dextromethorphan as substrate preincubated for 5 mins followed by NADPH addition measured after 10 mins by LC-MS/MS analysis
Cytochrome P450 2D6, sequence (P10635 whole entry): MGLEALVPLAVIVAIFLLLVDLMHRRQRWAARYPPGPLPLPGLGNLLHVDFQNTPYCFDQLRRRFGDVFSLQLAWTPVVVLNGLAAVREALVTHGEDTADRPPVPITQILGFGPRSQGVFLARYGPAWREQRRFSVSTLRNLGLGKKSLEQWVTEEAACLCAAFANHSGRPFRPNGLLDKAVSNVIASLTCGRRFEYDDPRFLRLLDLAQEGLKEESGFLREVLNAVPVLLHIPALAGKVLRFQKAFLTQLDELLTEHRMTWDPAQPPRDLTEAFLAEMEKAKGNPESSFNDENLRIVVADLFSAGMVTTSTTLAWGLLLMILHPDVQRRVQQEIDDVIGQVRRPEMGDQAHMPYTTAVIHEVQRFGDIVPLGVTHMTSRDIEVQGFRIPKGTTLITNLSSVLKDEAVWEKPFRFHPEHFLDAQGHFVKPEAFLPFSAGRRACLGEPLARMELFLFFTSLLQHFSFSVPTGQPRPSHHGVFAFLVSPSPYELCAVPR

Cytochrome P450 3A4 [2] = target: T2, Cytochrome P450 3A4 (Homo sapiens, UniProt P08684); test: Inhibition of CYP3A4 in human liver microsomes using testosterone as substrate preincubated for 5 mins followed by NADPH addition measured after 10 mins by LC-MS/MS analysis
T2 sequence (P08684 whole entry): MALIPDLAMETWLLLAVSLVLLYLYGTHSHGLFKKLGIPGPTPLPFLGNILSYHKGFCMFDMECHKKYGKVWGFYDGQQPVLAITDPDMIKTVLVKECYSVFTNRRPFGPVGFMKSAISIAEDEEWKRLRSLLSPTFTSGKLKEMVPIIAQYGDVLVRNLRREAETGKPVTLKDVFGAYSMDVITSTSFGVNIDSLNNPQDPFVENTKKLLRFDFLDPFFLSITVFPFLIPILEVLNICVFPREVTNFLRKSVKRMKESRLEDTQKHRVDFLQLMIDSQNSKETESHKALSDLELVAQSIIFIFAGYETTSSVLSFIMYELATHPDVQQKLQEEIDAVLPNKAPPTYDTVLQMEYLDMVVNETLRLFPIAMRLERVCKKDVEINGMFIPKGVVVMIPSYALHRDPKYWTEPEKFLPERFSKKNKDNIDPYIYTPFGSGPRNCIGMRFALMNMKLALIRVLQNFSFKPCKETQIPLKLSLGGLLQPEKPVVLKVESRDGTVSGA

[3] = Metabolic stability in mouse liver microsomes assessed as parent compound remaining at 1 uM preincubated for 5 mins followed by NADPH addition after 30 mins by LC-MS/MS analysis; format: ADME, Microsome; conditions: read-out: Stability
[4] = Metabolic stability in rat liver microsomes assessed as parent compound remaining at 1 uM preincubated for 5 mins followed by NADPH addition after 30 mins by LC-MS/MS analysis; format: ADME, Microsome; conditions: read-out: Stability
[5] = Metabolic stability in human liver microsomes assessed as parent compound remaining at 1 uM preincubated for 5 mins followed by NADPH addition after 30 mins by LC-MS/MS analysis; format: ADME, Microsome; conditions: read-out: Stability
Cytochrome P450 1A2 = target: T3, Cytochrome P450 1A2 (Homo sapiens, UniProt P05177); test: Inhibition of CYP1A2 in human liver microsomes using phenacetin as substrate preincubated for 5 mins followed by NADPH addition measured after 10 mins by LC-MS/MS analysis
T3 sequence (P05177 whole entry): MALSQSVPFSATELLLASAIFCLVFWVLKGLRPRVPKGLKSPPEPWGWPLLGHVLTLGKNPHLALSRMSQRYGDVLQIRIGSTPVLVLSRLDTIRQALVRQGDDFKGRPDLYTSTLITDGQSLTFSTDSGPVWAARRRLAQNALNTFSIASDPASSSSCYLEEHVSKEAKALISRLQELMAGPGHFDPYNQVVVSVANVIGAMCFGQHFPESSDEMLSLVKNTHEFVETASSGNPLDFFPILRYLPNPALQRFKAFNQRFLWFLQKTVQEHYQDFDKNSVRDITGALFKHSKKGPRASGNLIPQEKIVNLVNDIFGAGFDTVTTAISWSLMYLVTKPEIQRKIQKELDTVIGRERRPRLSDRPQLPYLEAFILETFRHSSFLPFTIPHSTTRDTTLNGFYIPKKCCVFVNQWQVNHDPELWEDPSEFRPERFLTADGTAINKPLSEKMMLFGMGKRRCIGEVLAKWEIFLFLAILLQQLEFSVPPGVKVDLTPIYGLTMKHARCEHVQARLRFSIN

[6] = Solubility of the compound at pH 2.1; conditions: buffer
[7] = Solubility of the compound at pH 4; conditions: buffer
[8] = Solubility of the compound at pH 7.4; conditions: buffer
[9] = target: T1, Nuclear receptor ROR-gamma; test: Inverse agonist activity at GST-tagged RORgammat LBD (unknown origin) using fluorescein-D22 co-activator peptide as substrate incubated for 1 hr by TR-FRET assay
Cytochrome P450 3A4 [10] = target: T2, Cytochrome P450 3A4; test: Inhibition of CYP3A4 in human liver microsomes using midazolam as substrate preincubated for 5 mins followed by NADPH addition measured after 10 mins by LC-MS/MS analysis

SMILES	IC50 [1] [nM]	remaining at 0.5 h, 1 µM [3] [%]	remaining at 0.5 h, 1 µM [4] [%]	remaining at 0.5 h, 1 µM [5] [%]	other results
Cc1cccc(Cl)c1C(=O)c1cn(-c2ccc(C(=O)O)cc2)c2c(F)cccc12	11	80	70	66	IC50 (Cytochrome P450 2C9): 32000 nM; IC50 (Cytochrome P450 2C19): > 50000 nM; IC50 (Cytochrome P450 2D6): > 50000 nM; IC50 (Cytochrome P450 3A4 [2]): 27200 nM
O=C(O)c1ccc(-n2cc(C(=O)c3ccccc3Cl)c3ccccc32)cc1	205	96			
Cc1cccc(Cl)c1C(=O)c1cn(-c2ccc(C(=O)O)cc2F)c2ncccc12	27	93	73	88	IC50 (Cytochrome P450 1A2): > 50000 nM; IC50 (Cytochrome P450 2C19): > 50000 nM; IC50 (Cytochrome P450 3A4 [2]): > 50000 nM; solubility [6]: < 1 µM; solubility [7]: 1 µM (≈ 0.409 µg/mL); solubility [8]: 1960 µM (≈ 803 µg/mL)
O=C(O)c1ccc(-n2cc(C(=O)c3c(Cl)cccc3Cl)c3ccccc32)c(F)c1F	75	100			
O=C(O)c1ccc(-n2cc(C(=O)c3c(Cl)cccc3C(F)(F)F)c3c(F)cccc32)cc1	38	96	65	79	IC50 (Cytochrome P450 1A2): > 50000 nM; IC50 (Cytochrome P450 2C9): 22600 nM; IC50 (Cytochrome P450 2C19): 50000 nM; IC50 (Cytochrome P450 2D6): > 50000 nM; IC50 (Cytochrome P450 3A4 [2]): 16400 nM
O=C(O)c1ccc(-n2cc(C(=O)c3c(Cl)cccc3Cl)c3ccc(F)cc32)cc1	199	80	61	91	
O=C(O)c1ccc(-n2cc(C(=O)c3c(Cl)cccc3Cl)c3ccccc32)cc1C(F)(F)F	> 1000	61	61	71	
O=C(O)c1ccc(-n2cc(C(=O)c3c(F)cccc3F)c3ccccc32)cc1	445	94	88	92	
O=C(O)c1ccc(-n2cc(C(=O)c3c(Cl)cccc3Cl)c3ccccc32)c(C(F)(F)F)c1	> 3000	85	45	99	
O=C(O)c1ccc(-n2cc(C(=O)c3c(Cl)cc(Cl)cc3Cl)c3ccccc32)cc1	107	90			
O=C(O)c1ccc(-n2cc(C(=O)c3c(Cl)cccc3Cl)c3cccnc32)cc1	104	100	100	100	IC50 [9]: 20 nM; solubility [6]: 1 µM (≈ 0.411 µg/mL); solubility [7]: 3 µM (≈ 1.23 µg/mL); solubility [8]: 407 µM (≈ 167 µg/mL)
Cc1cc(C(=O)O)ccc1-n1cc(C(=O)c2c(Cl)cccc2Cl)c2ccccc21	213				
Cc1cccc(Cl)c1C(=O)c1cn(-c2ccc(C(=O)O)cc2F)c2ccccc12	21	84	46	59	
Cc1cccc(Cl)c1C(=O)c1cn(-c2ccc(C(=O)O)cc2)c2cccc(F)c12	93	80	70	77	
O=C(O)c1cc(F)c(-n2cc(C(=O)c3c(Cl)cccc3Cl)c3ccccc32)c(F)c1	10	75	30	94	
O=C(O)c1ccc(-n2cc(C(=O)c3c(Cl)cccc3Cl)c3cccc(Cl)c32)cc1	70	76			
Cc1cc(-n2cc(C(=O)c3c(Cl)cccc3Cl)c3ccccc32)ccc1C(=O)O	2010				

SMILES	IC50 [1] [nM]	remaining at 0.5 h, 1 µM [3] [%]	remaining at 0.5 h, 1 µM [4] [%]	remaining at 0.5 h, 1 µM [5] [%]	other results
O=C(O)c1ccc(-n2cc(C(=O)c3c(Cl)cccc3C(F)(F)F)c3cccnc32)cc1	44	84	55	83	
O=C(O)c1ccc(-n2cc(C(=O)c3c(F)cccc3Cl)c3ccccc32)cc1	199	100	100	100	IC50 [9]: 20 nM; IC50 (Cytochrome P450 1A2): 96600 nM; IC50 (Cytochrome P450 2C9): 9000 nM; IC50 (Cytochrome P450 2C19): > 100000 nM; IC50 (Cytochrome P450 2D6): > 100000 nM; IC50 (Cytochrome P450 3A4 [10]): > 100000 nM
O=C(O)c1ccc(-n2cc(C(=O)c3c(Cl)cccc3Cl)c3ccccc32)c(Cl)c1	124	64	48	76	
O=C(O)c1ccc(-n2cc(C(=O)c3c(F)cc(F)cc3Cl)c3ccccc32)cc1	210				
O=C(O)c1cc(Cl)c(-n2cc(C(=O)c3c(Cl)cccc3Cl)c3ccccc32)c(Cl)c1	506				
COc1cccc2c(C(=O)c3c(Cl)cccc3Cl)cn(-c3ccc(C(=O)O)cc3)c12	731	83			IC50 [9]: 350 nM
Cc1cccc(Cl)c1C(=O)c1cn(-c2ccc(C(=O)O)cc2F)c2cccc(F)c12	36	68	43	75	
O=C(O)c1ccc(-n2cc(C(=O)c3c(Cl)cccc3Cl)c3c(F)cccc32)c(F)c1	37	100	44	88	IC50 (Cytochrome P450 1A2): > 50000 nM; IC50 (Cytochrome P450 2C9): 8010 nM; IC50 (Cytochrome P450 2C19): > 50000 nM; IC50 (Cytochrome P450 2D6): > 50000 nM; IC50 (Cytochrome P450 3A4 [2]): 8340 nM
O=C(O)c1ccc(-n2cc(C(=O)c3c(Cl)cccc3Cl)c3cccnc32)c(F)c1	32	92	90	100	IC50 (Cytochrome P450 1A2): > 50000 nM; IC50 (Cytochrome P450 2C9): 16000 nM; IC50 (Cytochrome P450 2C19): > 50000 nM; IC50 (Cytochrome P450 2D6): > 10000 nM; IC50 (Cytochrome P450 3A4 [2]): > 50000 nM; solubility [6]: < 1 µM; solubility [7]: < 1 µM; solubility [8]: > 2000 µM
O=C(O)c1ccc(-n2cc(C(=O)c3c(Cl)cccc3Cl)c3ccccc32)cc1O	5	77	3	68	
O=C([O-])c1ccc(-n2cc(C(=O)c3c(Cl)cccc3Cl)c3ccccc32)cc1.[Na+]					solubility [6]: 52 µM; solubility [7]: 30 µM; solubility [8]: > 2000 µM
Cc1c(C(=O)c2c(Cl)cccc2Cl)c2ccccc2n1-c1ccc(C(=O)O)cc1	> 5000	92			IC50 [9]: 156 nM
O=C(O)c1ccc(-n2cc(C(=O)c3c(Cl)cccc3Cl)c3cccc(F)c32)c(F)c1		72	73	65	
O=C(O)c1ccc(-n2cc(C(=O)c3c(Cl)cccc3Cl)c3ccccc32)cc1F	290	92			
Cc1cccc2c(C(=O)c3ccccc3Cl)cn(-c3ccc(C(=O)O)cc3F)c12	119	67			IC50 [9]: 8.1 nM
O=C(O)c1ccc(-n2cc(C(=O)c3c(Cl)cccc3C(F)(F)F)c3ccccc32)cc1		100	95	100	IC50 (Cytochrome P450 1A2): > 25000 nM; IC50 (Cytochrome P450 2C9): 16000 nM; IC50 (Cytochrome P450 2C19): > 50000 nM; IC50 (Cytochrome P450 2D6): > 50000 nM; IC50 (Cytochrome P450 3A4 [10]): 37000 nM; IC50 (Cytochrome P450 3A4 [2]): > 50000 nM; solubility [6]: 10 µM (≈ 4.44 µg/mL); solubility [7]: 1 µM (≈ 0.444 µg/mL); solubility [8]: 1470 µM (≈ 654 µg/mL)
O=C(O)c1ccc(-n2cc(C(=O)c3c(Cl)cccc3Cl)c3cc(F)ccc32)cc1	251	82	76	87	
